From PubChem BioAssay (NCI)
Where “and” joins values, the source holds several entries; their conditions need not be identical. Identical values can stand only once.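 Each compound was tested at five concentrations against cells in 96-well plates for 48 hours. GI50 = concentration required for 50% inhibition of growth. TGI: total growth inhibition.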

Columns and labels:
Assay in all cases: NCI tumour cell line growth inhibition, 48 h
[1] = system: SK-OV-3 ovarian
[2] = system: SF-539 CNS
[3] = system: NCI-H522 lung
[4] = system: A549 NSCLC
[5] = system: OVCAR-8 ovarian
[6] = system: DU-145 prostate
[7] = system: UACC-62 melanoma
[8] = system: SF-295 CNS
[9] = system: NCI-H460 lung
[10] = system: HCC-2998 colon

SMILES	GI50 [1]	TGI [1]	GI50 [2]	TGI [2]	GI50 [3]	TGI [3]	GI50 [4]	TGI [4]	GI50 [5]	TGI [5]	GI50 [6]	TGI [6]	GI50 [7]	TGI [7]	GI50 [8]	TGI [8]	GI50 [9]	TGI [9]	GI50 [10]	TGI [10]
COc1ncc(-c2ccc3nccc(-c4ccnnc4)c3c2)cc1NS(=O)(=O)c1ccc(F)cc1F	0.00188 µM and < 0.01 µM	0.0204 µM and 0.0377 µM	0.00746 µM and < 0.01 µM	0.0587 µM and 0.0468 µM	0.0147 µM and < 0.0104 µM	2.16 µM and 2.58 µM	0.00882 µM and < 0.01 µM	1.49 µM and 1.32 µM	0.0191 µM and 0.0173 µM	> 5.42 µM and 3.25 µM	0.0119 µM and 0.0164 µM	> 10 µM and 13 µM	0.00217 µM and < 0.01 µM	0.019 µM and 0.0263 µM	0.00537 µM and < 0.01 µM	0.0595 µM and 0.0299 µM	0.00406 µM and < 0.01 µM	> 10 µM and 15.3 µM	0.00997 µM and 0.0133 µM	0.275 µM and 0.572 µM
COC(=O)c1c2c(c(C)[n+]([O-])c1C)C(=O)C=C(NCc1ccc(F)c(Cl)c1)C2=O	1.51 µM	3.38 µM	0.604 µM	1.71 µM	0.266 µM	1.7 µM	0.352 µM	1.95 µM	0.155 µM	1.14 µM	0.566 µM	2.07 µM	0.0325 µM	0.662 µM	0.231 µM	1.48 µM	0.264 µM	1.4 µM	0.187 µM	1.41 µM
COc1cc2c3c(n(CCCN)c(=O)c2cc1OC)-c1cc2c(cc1/C3=C\CCN)OCO2	6 µM	44.2 µM	1.62 µM	4.41 µM	0.2 µM	3.08 µM	3.19 µM	> 30.3 µM	1.99 µM	13.1 µM	2.52 µM	12.7 µM	1.75 µM	4.98 µM	3.33 µM	–	1.06 µM	7.53 µM	0.382 µM	1.77 µM
COc1cc(-c2nn(-c3cccc(NC(=O)Nc4cc(C(F)(F)F)cc(C(F)(F)F)c4)c3)cc2-c2ccncc2)ccc1Cl	1.16 µM	2.87 µM	0.836 µM	1.75 µM	0.356 µM	1.43 µM	0.438 µM	2.8 µM	0.524 µM	3.98 µM	0.987 µM	5.59 µM	0.496 µM	1.5 µM	0.241 µM	0.921 µM	0.366 µM	1.64 µM	1.09 µM	2.65 µM
COc1ccc2c(=O)c3ccoc3n(CC=C(C)C)c2c1	–	> 100 µM	–	> 100 µM	–	> 33.2 µM	–	> 100 µM	–	> 100 µM	–	> 100 µM	–	> 100 µM	–	> 100 µM	–	> 100 µM	–	> 100 µM
O=C1C(=O)c2ccccc2C(O)=C1CC=C(Br)Br	10.5 µM	59.8 µM	4.17 µM	47.3 µM	5.28 µM	29.9 µM	2.82 µM	62.2 µM	2.14 µM	66.8 µM	9.36 µM	> 100 µM	1.57 µM	35.9 µM	3.29 µM	> 100 µM	0.524 µM	13.3 µM	18.6 µM	> 100 µM
CC(C)(C)c1nn(-c2ccccc2)c2c1C(=O)CSC(c1ccccc1Cl)N2 (stereo not drawn)	1.78 µM	6.17 µM	2.36 µM	10.1 µM	0.65 µM	7.34 µM	1.67 µM	14 µM	6.65 µM	30.2 µM	2.86 µM	10.7 µM	0.775 µM	15 µM	0.746 µM	10.5 µM	2.8 µM	12.4 µM	2.08 µM	7.51 µM
Cc1cc2nc3c4cc(N)ccc4n(CCN(C)C)c3nc2cc1C	1.92 µM	16.4 µM	0.839 µM	4.66 µM	0.721 µM	5.63 µM	0.45 µM	6.14 µM	0.584 µM	12.8 µM	1.11 µM	11.7 µM	0.824 µM	2.75 µM	0.705 µM	4.03 µM	0.402 µM	2.95 µM	0.876 µM	3.85 µM
Cc1ccccc1N=Nc1ccc(NC(=O)c2ccnn2C)c(C)c1	24 µM	> 100 µM	36.5 µM	> 100 µM	30 µM	> 100 µM	73.9 µM	> 100 µM	98.5 µM	> 100 µM	> 100 µM	> 100 µM	97.2 µM	> 100 µM	23.9 µM	> 100 µM	26.5 µM	> 100 µM	> 100 µM	> 100 µM
COc1cc2cc(Oc3ccc(NC(=O)Nc4cccc(C(F)(F)F)c4)cc3)c(C)nc2cc1OC	2.06 µM	10.6 µM	2.48 µM	8.74 µM	1.32 µM	4.49 µM	1.47 µM	6.49 µM	1.71 µM	6.28 µM	2.78 µM	15.8 µM	1.84 µM	10.9 µM	1.13 µM	3.59 µM	1.6 µM	6.02 µM	2.59 µM	50 µM
NC(N)=N/N=C\c1cccc(OCc2ccccc2)c1	10.5 µM	22.3 µM	5.11 µM	20 µM	2.16 µM	11.3 µM	9.2 µM	24.1 µM	6.58 µM	38.8 µM	11.4 µM	23.9 µM	1.67 µM	3.45 µM	4.64 µM	20.4 µM	2.55 µM	7.79 µM	1.81 µM	3.54 µM
O=NNc1ccc(S(=O)(=O)c2ccccc2)cn1	–	> 100 µM	–	> 100 µM	–	> 100 µM	–	> 100 µM	–	> 100 µM	–	> 100 µM	–	> 100 µM	–	> 100 µM	–	> 100 µM	–	> 100 µM
O=C1/C(=C/c2ccccc2)CN(C(=O)c2cccnc2)C/C1=C\c1ccccc1	3.52 µM	11.6 µM	2.14 µM	6.19 µM	1.57 µM	3.66 µM	3.1 µM	12.2 µM	2.08 µM	11.8 µM	2.04 µM	6.13 µM	2.32 µM	5.5 µM	1.79 µM	4.23 µM	2.58 µM	11 µM	0.939 µM	2.27 µM
N[C@@H]1CCCC[C@H]1N.O=C([O-])C(=O)[O-].[Pt+4]	> 66.2 µM	> 100 µM	10 µM	> 83.8 µM	3.92 µM	32.3 µM	0.615 µM	> 84.1 µM	6 µM	> 100 µM	6.17 µM	> 100 µM	2.2 µM	23.5 µM	4.71 µM	> 100 µM	0.435 µM	38.3 µM	0.618 µM	10 µM
O=C(CN1CCN(CCCOc2c(-c3ccccc3)oc3ccccc3c2=O)CC1)Nc1ccc(Cl)cc1C(=O)c1ccccc1Cl	15.1 µM	54.2 µM	6.68 µM	22.2 µM	16.6 µM	57.2 µM	6.37 µM	> 100 µM	4.33 µM	22.2 µM	19.8 µM	> 100 µM	12.3 µM	26.3 µM	4.79 µM	18.2 µM	3.64 µM	> 100 µM	2.26 µM	4.23 µM
Nc1ncnc2c1nc(Cl)n2C1OC2COP(=O)(O)OC2C1O (stereo not drawn)	–	> 300 µM	–	> 300 µM	–	> 300 µM	–	> 300 µM	–	> 300 µM	–	> 300 µM	–	> 300 µM	–	> 300 µM	–	> 300 µM	–	> 300 µM
O=c1nc2n(-c3ccc(Cl)cc3)c3ccc([N+](=O)[O-])cc3cc-2c(=O)[nH]1	41.7 µM	> 100 µM	22.5 µM	53.9 µM	22.2 µM	57.2 µM	30.4 µM	> 100 µM	33.2 µM	> 100 µM	29.1 µM	79.5 µM	11.8 µM	28.6 µM	19.8 µM	47.1 µM	23.1 µM	> 100 µM	22.3 µM	54.3 µM
O=C(Nc1cccc(Cl)c1)c1ccc(NC2=C(Cl)C(=O)N(Cc3ccccc3)C2=O)cc1	43.6 µM	> 95.5 µM	20.4 µM	36.3 µM	5.6 µM	> 44.6 µM	33.3 µM	> 100 µM	11.5 µM	27.3 µM	8.37 µM	19.2 µM	11.6 µM	25.4 µM	17.7 µM	56.9 µM	9.11 µM	> 50.9 µM	1.68 µM	3.83 µM
CCOC(=O)N1CCc2cc(OC)c(OC)c3c2c1cc1cc(OC)c(OC)cc13	–	> 51.1 µM	–	9.17 µM	–	4.3 µM	–	> 100 µM	–	> 100 µM	–	> 100 µM	–	63 µM	–	35.2 µM	–	28.5 µM	–	55.6 µM
O=C1CCCCCCCC/C=C\CC(c2ccco2)O1 (stereo not drawn)	32.7 µM	> 100 µM	56 µM	> 100 µM	18.1 µM	47.2 µM	46 µM	> 100 µM	33.4 µM	> 100 µM	44.8 µM	> 100 µM	14.6 µM	68.9 µM	25.4 µM	> 100 µM	76.5 µM	> 100 µM	> 100 µM	> 100 µM
CC1(C)N=C(N)N=C(N)N1c1ccc(OCCCCOc2ccc(S(=O)(=O)F)cc2)c(Cl)c1	5.88 µM	24.9 µM	0.398 µM	8.39 µM	0.16 µM	16.2 µM	0.0826 µM	14.8 µM	0.348 µM	17.4 µM	0.194 µM	16 µM	0.0534 µM	18 µM	0.286 µM	11.5 µM	0.0382 µM	11.8 µM	0.485 µM	18.2 µM
CC[C@H](Nc1nc(NCc2cnc(C)cc2C)c2ncn(C(C)C)c2n1)[C@@H](C)O	3.89 µM	> 100 µM	0.24 µM	0.781 µM	0.262 µM	1.31 µM	0.353 µM	> 100 µM	0.382 µM	> 100 µM	0.387 µM	> 100 µM	0.304 µM	1.88 µM	0.298 µM	–	0.327 µM	15.7 µM	0.291 µM	2 µM
COc1ccc(-n2nnnc2-c2c[nH]c3c(F)cc(F)cc23)cc1	34.7 µM	> 100 µM	52.8 µM	> 100 µM	86 µM	> 100 µM	> 100 µM	> 100 µM	39.6 µM	> 100 µM	> 100 µM	> 100 µM	> 100 µM	> 100 µM	24 µM	59.6 µM	> 100 µM	> 100 µM	> 100 µM	> 100 µM
CC1=C2C[C@H]3[C@@H](CC[C@@H]4CC(NS(C)(=O)=O)CC[C@@]43C)[C@@H]2CC[C@@]2(C1)O[C@@H]1C[C@H](C)CN[C@H]1[C@H]2C (stereo partly drawn)	8.49 µM	21.2 µM	12.9 µM	25.9 µM	14.3 µM	29 µM	4.26 µM	17.5 µM	12 µM	25.7 µM	14.4 µM	28 µM	9.27 µM	21.8 µM	12.5 µM	26.1 µM	4.81 µM	16 µM	14.1 µM	28.2 µM
COc1ccccc1CCN=C1NC(=O)/C(=C/c2ccc3ncccc3c2)S1	5.67 µM	14.4 µM	4.48 µM	15.7 µM	2.36 µM	7.54 µM	5.93 µM	> 25 µM	6.75 µM	> 25 µM	7.97 µM	> 25 µM	6.1 µM	> 25 µM	5.86 µM	> 21.8 µM	6.05 µM	> 25 µM	8.7 µM	> 25 µM
O=C1NC(O)C(c2c[nH]c3ccccc23)=C1c1c[nH]c2ccccc12 (stereo not drawn)	> 25 µM	> 25 µM	> 25 µM	> 25 µM	> 25 µM	> 25 µM	> 25 µM	> 25 µM	> 25 µM	> 25 µM	> 25 µM	> 25 µM	8.01 µM	> 25 µM	> 25 µM	> 25 µM	> 25 µM	> 25 µM	> 25 µM	> 25 µM
